≈ marks a conversion by molar mass, not a printed value.
Test system: Mycobacterium tuberculosis
Test: Antitubercular activity against Mycobacterium tuberculosis H37Rv
Format: functional

In order of rising MIC:
1. COc1c(N2CCNC(C)C2)c(F)cc2c(=O)c(C(=O)O)cn(C3CC3)c12 (centres undefined) [GATIFLOXACIN]  0.1 µg/mL (≈ 0.266 µM)
2. CCCCCCCCCCNCCCNc1c(F)cc2c(=O)c(C(=O)O)cn(C3CC3)c2c1OC  0.31 µg/mL (≈ 0.633 µM)
3. CCCCC(CC)CNCCNc1c(F)cc2c(=O)c(C(=O)O)cn(C3CC3)c2c1OC (centres undefined)  0.62 µg/mL (≈ 1.39 µM)
4. CCCCCCCCCCCCNCCCNc1c(F)cc2c(=O)c(C(=O)O)cn(C3CC3)c2c1OC  0.62 µg/mL (≈ 1.2 µM)
5. CCCCCCCCCCNCCNc1c(F)cc2c(=O)c(C(=O)O)cn(C3CC3)c2c1OC  0.62 µg/mL (≈ 1.3 µM)
6. CCCCCCCCCCCCCCNCCCNc1c(F)cc2c(=O)c(C(=O)O)cn(C3CC3)c2c1OC  0.62 µg/mL (≈ 1.14 µM)
7. CO[C@H]1/C=C/O[C@@]2(C)Oc3c(C)c(O)c4c(O)c(c(/C=N/N5CCN(C)CC5)c(O)c4c3C2=O)NC(=O)/C(C)=C\C=C\[C@H](C)[C@H](O)[C@@H](C)[C@@H](O)[C@@H](C)[C@H](OC(C)=O)[C@@H]1C [RIFAMPIN]  1 µg/mL (≈ 1.22 µM)
8. CCCCCCCCCCCCNCCNc1c(F)cc2c(=O)c(C(=O)O)cn(C3CC3)c2c1OC  1.25 µg/mL (≈ 2.48 µM)
9. CCCCCCCCNCCCNc1c(F)cc2c(=O)c(C(=O)O)cn(C3CC3)c2c1OC  1.25 µg/mL (≈ 2.71 µM)
10. CCCCC(CC)CNCCCNc1c(F)cc2c(=O)c(C(=O)O)cn(C3CC3)c2c1OC (centres undefined)  2.5 µg/mL (≈ 5.42 µM)
11. CCCCCCNCCNc1c(F)cc2c(=O)c(C(=O)O)cn(C3CC3)c2c1OC  5 µg/mL (≈ 11.9 µM)
12. CCCCCCCCCCCCCCNCCNc1c(F)cc2c(=O)c(C(=O)O)cn(C3CC3)c2c1OC  6.25 µg/mL (≈ 11.8 µM)
13. CCCCCCCCNCCNc1c(F)cc2c(=O)c(C(=O)O)cn(C3CC3)c2c1OC  12.5 µg/mL (≈ 27.9 µM)
14. CCCCCCNCCCNc1c(F)cc2c(=O)c(C(=O)O)cn(C3CC3)c2c1OC  50 µg/mL (≈ 115 µM)

Source: ChEMBL document CHEMBL1139821, “Synthesis and antitubercular activity of lipophilic moxifloxacin and gatifloxacin derivatives” (2007)
